The results in this text go back to patent US11267843B2, “Stereodefining L-monomers” (Roche Innovation Center Copenhagen A/S, priority 2016, dated 2022).

Data set [1] can be described thus: Stability determination of amidite in solvent after 24 hours (HPLC-MS, UV 254 nm). Type of data set: physicochemical. The settings on record: for Stability at 24 hours: room temperature, grades 1-3, key not given. On the procedure: (§1) To a 1.5 mL vial was added 0.013 mmol of amidite after which the solid material was dissolved in 0.13 mL of solvent. Hereafter, the vial was capped, vortexed, and finally left at room temperature for 24 hours. Then, the dissolved material was visually examined regarding the solubility (FIG. 1). If the solution appeared cloudy or otherwise non-homogenous the solubility was set to “no”.
Stability Determination Method: To complete the analysis the stability of the amidite was investigated using an Agilent 1100 series HPLC-MS with from the following specifications:
Column: Waters XTerra, MS C-18, 5 μm, 2.1×100 mm
Eluent: A: 0.1% sat. NH4OH (aq) in H2O B: 20% A in CH3CN
The mass and UV peak of the mother compound was identified at 0 hours and at 24 hours. Hereafter, the relative stability compared to other by-products was reported by integrating the UV chromatogram (254 nm) and normalizing the area to the chromatogram recorded at 0 hours (FIG. 2).

Data set [2] can be described thus: Solubility of amidite in solvent, visual examination. Type of data set: physicochemical. On the procedure:
To investigate the stability and solubility of L-LNA G-DMF and L-LNA G-i-Bu the following experimental procedure was followed:
as §1

Consider `COc1ccc(C(OCC2OC(n3cnc4c(=O)[nH]c(N=CN(C)C)nc43)CC2OP2OC(c3ccccc3)C3CCCN32)(c2ccccc2)c2ccc(OC)cc2)cc1` [D-DNA G-DMF], for which the “Stability at 24 hours” value in data set [1] (solvent DMF) amounted to 3; in data set [1] (solvent DMSO), 3; in data set [1] (solvent Dioxane), 2; in data set [1] (solvent MeCN:Acetone (1:1)), 3; in data set [1] (solvent MeCN:DCE (1:1)), 3; in data set [1] (solvent MeCN:DCM (1:1)) it was 3. The “Stability at 24 hours” value in data set [1] (solvent MeCN:Toluene (1:1)), in data set [1] (solvent MeCN), in data set [1] (solvent THE) and in data set [1] (solvent Toluene) was 3 each time.

With `COc1ccc(C(OCC2OC(n3cc(C)c(=O)[nH]c3=O)CC2OP2OC(c3ccccc3)C3CCCN32)(c2ccccc2)c2ccc(OC)cc2)cc1` [D-DNA T-DMF], the “Stability at 24 hours” value in data set [1] (solvent DCE) is 1; in data set [1] (solvent DCM) it was 1; in data set [1] (solvent DMF), 3; in data set [1] (solvent DMSO), 3; in data set [1] (solvent Dioxane) it was 1; in data set [1] (solvent MeCN:Acetone (1:1)) it was 2. The “Stability at 24 hours” value in data set [1] (solvent MeCN:DCE (1:1)) is 3; in data set [1] (solvent MeCN:DCM (1:1)), 3; in data set [1] (solvent MeCN:Toluene (1:1)) it was 3; in data set [1] (solvent MeCN), 3; in data set [1] (solvent NMP), 3; in data set [1] (solvent THE) it was 1. Besides, in data set [1] (solvent Toluene), the “Stability at 24 hours” value is listed as 3.

Regarding `COc1ccc(C(OCC23COC(C(n4cnc5c(=O)[nH]c(N=CN(C)C)nc54)O2)C3OP2OC(c3ccccc3)C3CCCN32)(c2ccccc2)c2ccc(OC)cc2)cc1` [D-LNA G-DMF], in data set [2] (most solvents), the “solubility in most solvents (side by side comparison)” value is reported as “soluble”. Moreover, the “stability in most solvents (side by side comparison)” value in data set [1] (most solvents) is “stable”. Besides, the “Stability at 24 hours” value in data set [1] (solvent DCE) came out at 1; in data set [1] (solvent DCM), 1; in data set [1] (solvent DMF), 1; in data set [1] (solvent DMSO), 1; in data set [1] (solvent Dioxane), 1; in data set [1] (solvent MeCN:Acetone (1:1)), 2. Besides, the “Stability at 24 hours” value in data set [1] (solvent MeCN:DCE (1:1)) is given as 1; in data set [1] (solvent MeCN:DCM (1:1)), 1; in data set [1] (solvent MeCN:Toluene (1:1)) it was 3; in data set [1] (solvent MeCN) it was 1; in data set [1] (solvent NMP), 3; in data set [1] (solvent THE), 2. In addition, the “Stability at 24 hours” value in data set [1] (solvent Toluene) was determined as 3.

Take `COc1ccc(C(OCC23COC(C(n4cc(C)c(=O)[nH]c4=O)O2)C3OP2OC(c3ccccc3)C3CCCN32)(c2ccccc2)c2ccc(OC)cc2)cc1` [D-LNA T-DMF]: the “Stability at 24 hours” value in data set [1] (solvent DCE) is 1; in data set [1] (solvent DCM), 1; in data set [1] (solvent DMF), 2; in data set [1] (solvent DMSO), 3; in data set [1] (solvent Dioxane), 2; in data set [1] (solvent MeCN:Acetone (1:1)), 2. Besides, the “Stability at 24 hours” value in data set [1] (solvent MeCN:DCE (1:1)) was 1; in data set [1] (solvent MeCN:DCM (1:1)), 1; in data set [1] (solvent MeCN:Toluene (1:1)) it was 3; in data set [1] (solvent MeCN), 1; in data set [1] (solvent NMP) it was 3; in data set [1] (solvent THE) it was 1. Further, the “Stability at 24 hours” value in data set [1] (solvent Toluene) amounted to 3.

For `COc1ccc(C(OCC2OC(n3cnc4c(=O)[nH]c(N=CN(C)C)nc43)CC2OP2OC(c3ccccc3)C3CCCN32)(c2ccccc2)c2ccc(OC)cc2)cc1` [L-DNA G-DMF], the “Stability at 24 hours” value is recorded as 3 in data set [1] (solvent DMF); 3 in data set [1] (solvent DMSO); 2 in data set [1] (solvent Dioxane); 3 in data set [1] (solvent MeCN:Acetone (1:1)); 3 in data set [1] (solvent MeCN:DCE (1:1)); 3 in data set [1] (solvent MeCN:DCM (1:1)). Besides, the “Stability at 24 hours” value in data set [1] (solvent MeCN:Toluene (1:1)) amounted to 3; in data set [1] (solvent MeCN) it was 2; in data set [1] (solvent THE), 3; in data set [1] (solvent Toluene), 3.

Take `COc1ccc(C(OCC2OC(n3cc(C)c(=O)[nH]c3=O)CC2OP2OC(c3ccccc3)C3CCCN32)(c2ccccc2)c2ccc(OC)cc2)cc1` [L-DNA T-DMF]: the “Stability at 24 hours” value in data set [1] (solvent DCE) turned out to be 1; in data set [1] (solvent DCM) it was 1; in data set [1] (solvent DMF), 3; in data set [1] (solvent DMSO) it was 3; in data set [1] (solvent Dioxane), 1; in data set [1] (solvent MeCN:Acetone (1:1)), 3. Further, the “Stability at 24 hours” value in data set [1] (solvent MeCN:DCE (1:1)) was found to be 3; in data set [1] (solvent MeCN:DCM (1:1)), 3; in data set [1] (solvent MeCN:Toluene (1:1)), 3; in data set [1] (solvent MeCN), 3; in data set [1] (solvent NMP) it was 3; in data set [1] (solvent THE), 2. Further, the “Stability at 24 hours” value in data set [1] (solvent Toluene) amounted to 3.

As to `COc1ccc(C(OC[C@@]23CO[C@@H]([C@H](n4cnc5c(=O)[nH]c(NC(=O)C(C)C)nc54)O2)[C@@H]3O[P@]2O[C@H](c3ccccc3)[C@@H]3CCCN32)(c2ccccc2)c2ccc(OC)cc2)cc1` [L-LNA G-iBu, N-(9-((1R,3R,4R,7S)-1-((bis(4-methoxyphenyl)(phenyl)methoxy)methyl)-7-(((1R,3R,3aS)-3-phenyltetrahydro-1H,3H-pyrrolo[1,2-c][1,3,2]oxazaphosphol-1-yl)oxy)-2,5-dioxabicyclo[2.2.1]heptan-3-yl)-6-oxo-6,9-dihydro-1H-purin-2-yl)isobutyramide], in data set [2] (all solvents investigated (12 different)), the “solubility in all solvents investigated” value was “soluble”. Moreover, the improvement in stability result in data set [1] (all solvents investigated) was “significant improvement”. In addition, the “Stability at 24 hours” value in data set [1] (solvent DCE) is on record as 2; in data set [1] (solvent DCM), 2; in data set [1] (solvent DMF), 3; in data set [1] (solvent DMSO), 3; in data set [1] (solvent Dioxane), 1; in data set [1] (solvent MeCN:Acetone (1:1)) it was 2. In addition, the “Stability at 24 hours” value is recorded as 2 in data set [1] (solvent MeCN:DCE (1:1)); 2 in data set [1] (solvent MeCN:DCM (1:1)); 3 in data set [1] (solvent MeCN:Toluene (1:1)); 2 in data set [1] (solvent MeCN); 2 in data set [1] (solvent THE); 3 in data set [1] (solvent Toluene).

With `COc1ccc(C(OCC23COC(C(n4cc(C)c(=O)[nH]c4=O)O2)C3OP2OC(c3ccccc3)C3CCCN32)(c2ccccc2)c2ccc(OC)cc2)cc1` [L-LNA T-DMF], the “Stability at 24 hours” value is reported as 1 in data set [1] (solvent DCE); 1 in data set [1] (solvent DCM); 1 in data set [1] (solvent DMF); 2 in data set [1] (solvent DMSO); 1 in data set [1] (solvent Dioxane); 2 in data set [1] (solvent MeCN:Acetone (1:1)). Further, the “Stability at 24 hours” value in data set [1] (solvent MeCN:DCE (1:1)) turned out to be 1; in data set [1] (solvent MeCN:DCM (1:1)), 1; in data set [1] (solvent MeCN:Toluene (1:1)), 3; in data set [1] (solvent MeCN) it was 1; in data set [1] (solvent NMP), 2; in data set [1] (solvent THE) it was 1. In addition, the “Stability at 24 hours” value in data set [1] (solvent Toluene) is on record as 3.
